Data reported in US20080070855A1, “Treatment with anti-VEGF agents to prevent postoperative inflammation and angiogenesis in normal and diseased eyes” (priority 2006, published 2008).

Test system: patients with diabetic retinopathy undergoing cataract surgery
Experiment: Intravitreal injection of anti-VEGF compound before cataract surgery in patients with diabetic retinopathy (case reports)
Type: in vivo, human
Details: Example 2: diabetic retinopathy; 0.15 cc (3.75 mg) intravitreal, same day prior to cataract surgery
Procedure: The following is an example of a method performed for the intravitreal injection of pharmaceutical compositions containing at least one anti-VEGF compound. Prior to injecting a needle through the sclera, the eyes were massaged to soften the ophthalmic tissue. The next step is to create a bleb in the conjunctiva and move the conjunctiva up from prefere so it covered an area about 3.5 mm from the limbus. Once the conjunctiva is prepared, the needle is inserted through the sclera into the vitreous. A 30 or 31 gauge needle is used. […]
A person underwent cataract surgery in the right eye. […] Refraction of the right eye was measured as −0.25−0.75×170 20/200. […] Refraction of the right eye after one week was measured at −0.25 sph 20/25.
A person with proliferative diabetic retinopathy with a history of pan-photocoagulation underwent cataract surgery of both eyes, however on different dates. Preoperative right eye refraction was measured as pl −0.50×174 20/100. Preoperative left eye refraction was measured as −0.75 sph 20/150. […]
A person with proliferative diabetic retinopathy with a history of pan-photocoagulation underwent cataract surgery of the left eye. Preoperative left eye refraction was measured as plano sph 20/80. […] Six days following cataract surgery refraction of the left eye was measured as plano sph 20/25.

Bevacizumab: anti-VEGF humanized monoclonal IgG1 antibody that binds and inhibits VEGF (trade name AVASTIN, Genentech)
Patient condition after one week: doing well
